Read-outs that look alike come from different tables or passages of the source.
System: NL-RLuc virus
Assay: Inhibition of HIV replication (NL-RLuc virus, luciferase readout in MT-2 cells)
Format: cell-based
Conditions: Human immunodeficiency virus 1, MT2, 120 h
Text: Inhibition of HIV Replication:
A recombinant NL-RLuc proviral clone was constructed in which a section of the nef gene from NL4-3 was replaced with the Renilla Luciferase gene. This virus is fully infectious and can undergo multiple cycles of replication in cell culture. In addition, the luciferous reporter provides a simple and easy method for quantitating the extent of virus growth and consequently, the antiviral activity of test compounds. The plasmid pNLRLuc contains the proviral NL-Rluc DNA cloned into pUC18 at the PvuII site. The NL-RLuc virus was prepared by transfection of 293T cells with the plasmid pNLRLuc. Transfections were performed using the LipofectAMINE PLUS kit from Invitrogen (Carlsbad, Calif.) according to the manufacturer and the virus generated was titered in MT-2 cells. For susceptibility analyses, the titrated virus was used to infect MT-2 cells in the presence of compound, and after 5 days of incubation, cells were processed and quantitated for virus growth by the amount of expressed luciferase. Assay media was RPMI 1640 supplemented with 10% heat inactivated fetal bovine serum (FBS), 100 units/ml penicillin G/100 units/ml streptomycin, 10 mM HEPES buffer pH 7.55 and 2 mM L-glutamine. The results from at least 2 experiments were used to calculate the EC50 values. Luciferase was quantitated using the Dual Luciferase kit from Promega (Madison, Wis.). Susceptibility of viruses to compounds was determined by incubation in the presence of serial dilutions of the compound. The 50% effective concentration (EC50) was calculated by using the exponential form of the median effect equation where (Fa)=1/[1+(ED50/drug conc.)^m] (Johnson V A, Byington R T. Infectivity Assay. In Techniques in HIV Research. ed. Aldovini A, Walker BD. 71-76. New York: Stockton Press. 1990). Activity equal to A refers to a compound having an EC50<100 nM, while B and C denote compounds having an EC50 between 100 nM and 1 uM (B) or >1 uM (C).

For Cc1nc(C)c([C@H](OC(C)(C)C)C(=O)O)c(-c2cc(F)c3c(c2)C=CCO3)c1-c1ccc(OCCc2ccc(F)cc2)cc1 [Example 47, (S)-2-(tert-Butoxy)-2-(4-(8-fluoro-2H-chromen-6-yl)-5-(4-(4-fluorophenethoxy)phenyl)-2,6-dimethylpyridin-3-yl)acetic Acid], which EC50 (read-out: Activity) is on record?
The EC50 was less than 0.1 µM.

Which EC50 (read-out: Activity) does the source give for Cc1nc(C)c([C@H](OC(C)(C)C)C(=O)O)c(-c2cc(F)c3c(c2)CCCO3)c1-c1ccc(OCCc2ccc(F)cc2)cc1 [Example 48, (S)-2-(tert-Butoxy)-2-(4-(8-fluorochroman-6-yl)-5-(4-(4-fluorophenethoxy)phenyl)-2,6-dimethylpyridin-3-yl)acetic Acid] here?
The EC50 was less than 0.1 µM.

For Cc1cccc(F)c1CN1CCc2cc(-c3c(C)nc(C)c([C@H](OC(C)(C)C)C(=O)O)c3-c3cc(F)c4c(c3)CCCO4)ccc2C1 [Example 49, (S)-2-(tert-Butoxy)-2-(5-(2-(2-fluoro-6-methylbenzyl)-1,2,3,4-tetrahydroisoquinolin-6-yl)-4-(8-fluorochroman-6-yl)-2,6-dimethylpyridin-3-yl)acetic Acid], which EC50 (read-out: Activity) is on record?
The EC50 was less than 0.1 µM.

For Cc1cc(F)ccc1CN1CCc2cc(-c3c(C)nc(C)c([C@H](OC(C)(C)C)C(=O)O)c3-c3cc(F)c4c(c3)CCCO4)ccc2C1 [Example 50, (S)-2-(tert-Butoxy)-2-(5-(2-(4-fluoro-2-methylbenzyl)-1,2,3,4-tetrahydroisoquinolin-6-yl)-4-(8-fluorochroman-6-yl)-2,6-dimethylpyridin-3-yl)acetic Acid], which EC50 (read-out: Activity) is on record?
Its EC50 is less than 0.1 µM.

Cc1cccc(Cl)c1CN1CCc2cc(-c3c(C)nc(C)c([C@H](OC(C)(C)C)C(=O)O)c3-c3cc(F)c4c(c3)CCCO4)ccc2C1 [Example 51, (S)-2-(tert-Butoxy)-2-(5-(2-(2-chloro-6-methylbenzyl)-1,2,3,4-tetrahydroisoquinolin-6-yl)-4-(8-fluorochroman-6-yl)-2,6-dimethylpyridin-3-yl)acetic Acid] was tested. Which EC50 (read-out: Activity) did it give?
Its EC50 is less than 0.1 µM.

Which EC50 (read-out: Activity) does the source give for Cc1cc(N2CCc3cc(-c4c(C)nc(C)c([C@H](OC(C)(C)C)C(=O)O)c4-c4cc(F)c5c(c4)CCCO5)ccc3C2)ncn1 [Example 52, (S)-2-(tert-Butoxy)-2-(4-(8-fluorochroman-6-yl)-2,6-dimethyl-5-(2-(6-methylpyrimidin-4-yl)-1,2,3,4-tetrahydroisoquinolin-6-yl)pyridin-3-yl)acetic Acid] here?
The EC50 was less than 0.1 µM.

Which EC50 (read-out: Activity) does the source give for Cc1nc(C)c([C@H](OC(C)(C)C)C(=O)O)c(-c2cc(F)c3c(c2)CCCO3)c1-c1ccc2c(c1)CCN(c1ncnc3c1cnn3C)C2 [Example 53, (S)-2-(tert-Butoxy)-2-(4-(8-fluorochroman-6-yl)-2,6-dimethyl-5-(2-(1-methyl-1H-pyrazolo[3,4-d]pyrimidin-4-yl)-1,2,3,4-tetrahydroisoquinolin-6-yl)pyridin-3-yl)acetic Acid] here?
The EC50 was less than 0.1 µM.

What does the source list for Cc1nc(C)c([C@H](OC(C)(C)C)C(=O)O)c(-c2ccc3c(c2)CCCO3)c1-c1ccc2c(c1)CCN(c1ncnc3c1cnn3C)C2 [Example 54, (S)-2-(tert-Butoxy)-2-(4-(chroman-6-yl)-2,6-dimethyl-5-(2-(1-methyl-1H-pyrazolo[3,4-d]pyrimidin-4-yl)-1,2,3,4-tetrahydroisoquinolin-6-yl)pyridin-3-yl)acetic Acid]?
EC50 (read-out: Activity): < 0.1 µM; EC50 (read-out: EC50 μM): 0.008 µM

For Cc1cc(N2CCc3cc(-c4c(C)nc(C)c([C@H](OC(C)(C)C)C(=O)O)c4-c4ccc5c(c4)CCCO5)ccc3C2)ncn1 [Example 55, (S)-2-(tert-Butoxy)-2-(4-(chroman-6-yl)-2,6-dimethyl-5-(2-(6-methylpyrimidin-4-yl)-1,2,3,4-tetrahydroisoquinolin-6-yl)pyridin-3-yl)acetic Acid], which EC50 (read-out: Activity) is on record?
Its EC50 is less than 0.1 µM.

For Cc1cc(F)ccc1CN1CCc2cc(-c3c(C)nc(C)c([C@H](OC(C)(C)C)C(=O)O)c3-c3ccc4c(c3)CCCO4)ccc2C1 [Example 56, (S)-2-(tert-Butoxy)-2-(4-(chroman-6-yl)-5-(2-(4-fluoro-2-methylbenzyl)-1,2,3,4-tetrahydroisoquinolin-6-yl)-2,6-dimethylpyridin-3-yl)acetic Acid], which EC50 (read-out: Activity) is on record?
The EC50 was less than 0.1 µM.

Which EC50 (read-out: Activity) does the source give for COc1nccc(N2CCc3cc(-c4c(C)nc(C)c([C@H](OC(C)(C)C)C(=O)O)c4-c4ccc5c(c4)CCCO5)ccc3C2)n1 [Example 57, (S)-2-(tert-Butoxy)-2-(4-(chroman-6-yl)-5-(2-(2-methoxypyrimidin-4-yl)-1,2,3,4-tetrahydroisoquinolin-6-yl)-2,6-dimethylpyridin-3-yl)acetic Acid] here?
Its EC50 is less than 0.1 µM.

How did the EC50 (read-out: Activity) turn out when Cc1cc(N2CCc3cc(-c4c(C)nc(C)c([C@H](OC(C)(C)C)C(=O)O)c4-c4ccc5c(c4)CCCO5)ccc3C2)nc(C)n1 [Example 58, (S)-2-(tert-Butoxy)-2-(4-(chroman-6-yl)-5-(2-(2,6-dimethylpyrimidin-4-yl)-1,2,3,4-tetrahydroisoquinolin-6-yl)-2,6-dimethylpyridin-3-yl)acetic Acid] was run?
Its EC50 is less than 0.1 µM.

Cc1nc(N)c(-c2ccc(OCCc3ccc(F)cc3)cc2)c(-c2ccc3c(c2)CCCO3)c1[C@H](OC(C)(C)C)C(=O)O [Example 59, (S)-2-(6-Amino-4-(chroman-6-yl)-5-(4-(4-fluorophenethoxy)phenyl)-2-methylpyridin-3-yl)-2-(tert-butoxy)acetic Acid] was tested. Which EC50 (read-out: Activity) did it give?
The EC50 was less than 0.1 µM.

What does the source list for Cc1cc(F)ccc1CN1CCc2cc(-c3c(N)nc(C)c([C@H](OC(C)(C)C)C(=O)O)c3-c3ccc4c(c3)CCCO4)ccc2C1 [Example 60, (S)-2-(6-Amino-4-(chroman-6-yl)-5-(2-(4-fluoro-2-methylbenzyl)-1,2,3,4-tetrahydroisoquinolin-6-yl)-2-methylpyridin-3-yl)-2-(tert-butoxy)acetic Acid]?
EC50 (read-out: Activity): < 0.1 µM; EC50 (read-out: EC50 μM): 0.003 µM

For Cc1nc(N)c(-c2ccc3c(c2)CCN(Cc2cccc(F)c2C)C3)c(-c2ccc3c(c2)CCCO3)c1[C@H](OC(C)(C)C)C(=O)O [Example 61, (S)-2-(6-Amino-4-(chroman-6-yl)-5-(2-(3-fluoro-2-methylbenzyl)-1,2,3,4-tetrahydroisoquinolin-6-yl)-2-methylpyridin-3-yl)-2-(tert-butoxy)acetic acid], which EC50 (read-out: Activity) is on record?
The EC50 was less than 0.1 µM.

Cc1cccc(F)c1CN1CCc2cc(-c3c(N)nc(C)c([C@H](OC(C)(C)C)C(=O)O)c3-c3ccc4c(c3)CCCO4)ccc2C1 [Example 62, (S)-2-(6-Amino-4-(chroman-6-yl)-5-(2-(2-fluoro-6-methylbenzyl)-1,2,3,4-tetrahydroisoquinolin-6-yl)-2-methylpyridin-3-yl)-2-(tert-butoxy)acetic Acid] was tested. Which EC50 (read-out: Activity) did it give?
Its EC50 is less than 0.1 µM.

Cc1cccc(Cl)c1CN1CCc2cc(-c3c(N)nc(C)c([C@H](OC(C)(C)C)C(=O)O)c3-c3ccc4c(c3)CCCO4)ccc2C1 [Example 63, (S)-2-(6-Amino-5-(2-(2-chloro-6-methylbenzyl)-1,2,3,4-tetrahydroisoquinolin-6-yl)-4-(chroman-6-yl)-2-methylpyridin-3-yl)-2-(tert-butoxy)acetic Acid] was tested. Which EC50 (read-out: Activity) did it give?
Its EC50 is less than 0.1 µM.

Which EC50 (read-out: Activity) does the source give for COc1nccc(N2CCc3cc(-c4c(N)nc(C)c([C@H](OC(C)(C)C)C(=O)O)c4-c4ccc5c(c4)CCCO5)ccc3C2)n1 [Example 64, (S)-2-(6-Amino-4-(chroman-6-yl)-5-(2-(2-methoxypyrimidin-4-yl)-1,2,3,4-tetrahydroisoquinolin-6-yl)-2-methylpyridin-3-yl)-2-(tert-butoxy)acetic Acid] here?
Its EC50 is less than 0.1 µM.

Cc1cc(N2CCc3cc(-c4c(N)nc(C)c([C@H](OC(C)(C)C)C(=O)O)c4-c4ccc5c(c4)CCCO5)ccc3C2)nc(C)n1 [Example 65, (S)-2-(6-Amino-4-(chroman-6-yl)-5-(2-(2,6-dimethylpyrimidin-4-yl)-1,2,3,4-tetrahydroisoquinolin-6-yl)-2-methylpyridin-3-yl)-2-(tert-butoxy)acetic Acid] was tested. Which EC50 (read-out: Activity) did it give?
The EC50 was less than 0.1 µM.

How did the EC50 (read-out: Activity) turn out when Cc1nc(CCCC2CCOCC2)c(-c2ccc(OCCc3ccc(F)cc3)cc2)c(-c2ccc3c(c2)CCCO3)c1[C@H](OC(C)(C)C)C(=O)O [Example 66, (S)-2-(tert-Butoxy)-2-(4-(chroman-6-yl)-5-(4-(4-fluorophenethoxy)phenyl)-2-methyl-6-(3-(tetrahydro-2H-pyran-4-yl)propyl)pyridin-3-yl)acetic Acid] was run?
The EC50 was less than 0.1 µM.

And the EC50 (read-out: EC50 μM)?
Its EC50 is 0.006 µM.

Which EC50 (read-out: Activity) does the source give for Cc1cc(N2CCc3cc(-c4c(CCCC5CCOCC5)nc(C)c([C@H](OC(C)(C)C)C(=O)O)c4-c4ccc5c(c4)CCCO5)ccc3C2)ncn1 [Example 67, (S)-2-(tert-Butoxy)-2-(4-(chroman-6-yl)-2-methyl-5-(2-(6-methylpyrimidin-4-yl)-1,2,3,4-tetrahydroisoquinolin-6-yl)-6-(3-(tetrahydro-2H-pyran-4-yl)propyl)pyridin-3-yl)acetic Acid] here?
The EC50 was less than 0.1 µM.

With Cc1cccc(F)c1CN1CCc2cc(-c3c(CCCC4CCOCC4)nc(C)c([C@H](OC(C)(C)C)C(=O)O)c3-c3ccc4c(c3)CCCO4)ccc2C1 [Example 68, (S)-2-(tert-Butoxy)-2-(4-(chroman-6-yl)-5-(2-(2-fluoro-6-methylbenzyl)-1,2,3,4-tetrahydroisoquinolin-6-yl)-2-methyl-6-(3-(tetrahydro-2H-pyran-4-yl)propyl)pyridin-3-yl)acetic Acid] as the compound, how does the EC50 (read-out: Activity) read?
Its EC50 is less than 0.1 µM.
